Molecular target: T1, Aβ40 (Homo sapiens, UniProt P05067)
T1 construct: pre-treated Aβ40 (40 μM in 20 mM Tris, pH 7.4)
Test: Thioflavin T (ThT) Aβ aggregation assay
Type: biochemical
Details: 20 μM Aβ40, 37 degrees C
Protocol: Aβ40 (1.0 mg) was pre-treated in a 1.5 mL microfuge tube with HFIP (1 mL) and sonicated for 20 min to disassemble any pre-formed Aβ aggregates. The HFIP was removed with a stream of argon and the Aβ dissolved in Tris base (5.8 mL, 20 mM, pH ˜10). The pH was adjusted to 7.4 with concentrated HCl (−10 μL) and the solution filtered using a syringe filter (0.2 μm) before being used.
The kinetic ThT assay for Aβ aggregation is similar to that of Chalifour et al (Chalifour et al, 2003, J. Biol. Chem. 278:34874-81). Briefly, pre-treated Aβ40 (40 μM in 20 mM Tris, pH 7.4), was diluted with an equal volume of 8 μM ThT in Tris (20 mM, pH 7.4, 300 mM NaCl). Aliquots of Aβ/ThT (200 μL) were added to wells of a black polystyrene 96-well plate, followed by 2 μL of a compound in DMSO (variable concentration), or DMSO alone (controls). Incubations were performed in triplicate and were taken to contain 20 μM Aβ, various concentration of compound in 20 mM Tris, pH 7.4, 150 mM NaCl, 1% DMSO. Plates were covered with clear polystyrene lids and incubated at 37 degrees C. in a Tecan Genios microplate reader. Fluorescence readings (λex=450 nm, λem=480 nm) were taken every 15 min., after first shaking at high intensity for 15 s and allowing to settle for 10 s before each reading. Active compounds attenuated the increase in fluorescence over time that occurred in controls.

T1 sequence (P05067 672-711 limits assumed): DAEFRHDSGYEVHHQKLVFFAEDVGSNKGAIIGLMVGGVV

SMILES	IC50 [µM]
O=C(c1ccccc1)N1CCN(c2ccc(Cl)c(Nc3ccccc3)c2)CC1 [TRV 1094, (4-(4-chloro-3-(phenylamino)phenyl)piperazin-1-yl)(phenyl)methanone]	31.6 ± 4.8
O=C(O)c1cccc(-c2ccc(Cl)c(Nc3ccccc3)c2)c1 [TRV 1097, 4′-chloro-3′-(phenylamino)-[1,1′-biphenyl]-3-carboxylic acid]	> 50
CC1CN(c2ccc([N+](=O)[O-])c(Nc3ccccc3)c2)CC(C)N1C(=O)c1ccccc1 (stereo not shown) [TRV 1098, (2,6-dimethyl-4-(4-nitro-3-(phenyl amino)phenyl)piperazin-1-yl)(phenyl)methanone]	3.99 ± 3.77
CC1CN(c2ccc([N+](=O)[O-])c(Nc3ccccc3)c2)CCN1C(=O)c1ccccc1 (stereo not shown) [TRV 1099, (2-methyl-4-(4-nitro-3-(phenylamino)phenyl)piperazin-1-yl)(phenyl)methanone]	6.12 ± 2.78
CNC(=O)c1cccc(-c2ccc([N+](=O)[O-])c(NCc3ccccc3)c2)c1 [TRV 1101, 3′-(benzylamino)-N-methyl-4′-nitrobiphenyl-3-carboxamide]	> 50
NC(=O)c1cccc(-c2ccc([N+](=O)[O-])c(NCc3ccccc3)c2)c1 [TRV 1103, 3′-(benzylamino)-4′-nitrobiphenyl-3-carboxamide]	10.5 ± 0.75
O=C(c1cccc(-c2ccc([N+](=O)[O-])c(NCc3ccccc3)c2)c1)N1CCOCC1 [TRV 1113, (3′-(benzyl amino)-4′-nitrobiphenyl-3-yl)(morpholino)methanone]	> 50
CC(=O)N1CCN(C(=O)c2cccc(-c3ccc([N+](=O)[O-])c(NCc4ccccc4)c3)c2)CC1 [TRV 1114, 1-(4-(3′-(benzylamino)-4′-nitrobiphenylcarbonyl)piperazin-1-yl)ethanone]	> 50
CCNC(=O)c1cccc(-c2ccc([N+](=O)[O-])c(NCc3ccccc3)c2)c1 [TRV 1116, 3′-(benzylamino)-N-ethyl-4′-nitrobiphenyl-3-carboxamide]	> 50
CN(Cc1ccccc1)C(=O)c1cccc(-c2ccc([N+](=O)[O-])c(NCc3ccccc3)c2)c1 [TRV 1118, N-benzyl-3′-(benzylamino)-N-methyl-4′-nitrobiphenyl-3-carboxamide]	6.47 ± 4.92
CC(=O)c1cccc(-c2ccc([N+](=O)[O-])c(NCc3ccccc3)c2)c1 [TRV 1124, 1-(3′-(benzylamino)-4′-nitrobiphenyl-3-yl)ethanone]	6.49 ± 2.5
O=[N+]([O-])c1ccc(-c2ccccc2-c2nnn[nH]2)cc1NCc1ccccc1 [TRV 1125, N-benzyl-4-nitro-2′-(1H-tetrazol-5-yl)-[1,1′-biphenyl]-3-amine]	12.5 ± 2.79
N#Cc1ccc(-c2cccc(C(=O)O)c2)cc1NCc1ccccc1 [TRV 1128, 3′-(benzylamino)-4′-cyanobiphenyl-3-carboxylic acid]	> 50
CCCN(CCC)C(=O)c1cccc(-c2ccc([N+](=O)[O-])c(NCc3ccccc3)c2)c1 [TRV 1130, 3′-(benzylamino)-4′-nitro-N,N-dipropylbiphenyl-3-carboxamide]	> 50
O=C(C1CCCN(c2ccc([N+](=O)[O-])c(NCc3ccccc3)c2)C1)N1CCCC1 (stereo not shown) [TRV 1131, (1-(3-(benzylamino)-4-nitrophenyl)piperidin-3-yl)(pyrrolidin-1-yl)methanone]	27.8 ± 27.6
CN(C)C(=O)C1CCCN(c2ccc([N+](=O)[O-])c(NCc3ccccc3)c2)C1 (stereo not shown) [TRV 1132, 1-(3-(benzylamino)-4-nitrophenyl)-N,N-dimethylpiperidine-3-carboxamide]	11.5 ± 0.29
O=C(C1CCN(c2ccc([N+](=O)[O-])c(NCc3ccccc3)c2)CC1)N1CCCC1 [TRV 1133, (1-(3-(benzyl amino)-4-nitrophenyl)piperidin-4-yl)(pyrrolidin-1-yl)methanone]	17.9 ± 13.3
CN(C)C(=O)C1CCN(c2ccc([N+](=O)[O-])c(NCc3ccccc3)c2)CC1 [TRV 1134, 1-(3-(benzylamino)-4-nitrophenyl)-N,N-dimethylpiperidine-4-carboxamide]	10.7 ± 0.54
CCN(CC)c1cc(N2CCN(C(=O)c3ccccc3)CC2)ccc1[N+](=O)[O-] [TRV 1135, (4-(3-(diethylamino)-4-nitrophenyl)piperazin-1-yl)(phenyl)methanone]	12.4 ± 0.62
N#Cc1cccc(-c2ccc([N+](=O)[O-])c(NCc3ccccc3)c2)c1 [TRV 1136, 3′-(benzylamino)-4′-nitrobiphenyl-3-carbonitrile]	> 50

SMILES	IC50 [µM]
O=C(c1ccccc1)N1CCN(c2ccc([N+](=O)[O-])c(N3CCCCC3)c2)CC1 [TRV 1137, (4-(4-nitro-3-(piperidin-1-yl)phenyl)piperazin-1-yl)(phenyl)methanone]	~10
O=C(c1ccccc1)N1CCN(c2ccc([N+](=O)[O-])c(N3CCOCC3)c2)CC1 [TRV 1138, (4-(3-morpholino-4-nitrophenyl)piperazin-1-yl)(phenyl)methanone]	> 10
O=C(c1ccccc1)N1CCN(c2ccc([N+](=O)[O-])c(N3CCC(N4CCCC4)CC3)c2)CC1 [TRV 1139, (4-(4-nitro-3-(4-(pyrrolidin-1-yl)piperidin-1-yl)phenyl)piperazin-1-yl)(phenyl)methanone]	~10
CC(C)Nc1cc(N2CCN(C(=O)c3ccccc3)CC2)ccc1[N+](=O)[O-] [TRV 1144, (4-(3-(isopropylamino)-4-nitrophenyl)piperazin-1-yl)(phenyl)methanone]	> 10
CN1CCN(c2cc(N3CCN(C(=O)c4ccccc4)CC3)ccc2[N+](=O)[O-])CC1 [TRV 1146, (4-(3-(4-methylpiperazin-1-yl)-4-nitrophenyl)piperazin-1-yl)(phenyl)methanone]	> 10
O=C(c1ccccc1)N1CCN(c2ccc([N+](=O)[O-])c(NC3CCC3)c2)CC1 [TRV 1149, (4-(3-(cyclobutylamino)-4-nitrophenyl)piperazin-1-yl)(phenyl)methanone]	> 10
CC(C)N(C)c1cc(N2CCN(C(=O)c3ccccc3)CC2)ccc1[N+](=O)[O-] [TRV 1152, (4-(3-(isopropyl(methyl)amino)-4-nitrophenyl)piperazin-1-yl)(phenyl)methanone]	16.9 ± 0.52
O=[N+]([O-])c1ccc(-c2cccc(C(O)(O)C(F)(F)F)c2)cc1NCc1ccccc1 [TRV 1153, 1-(3′-(benzylamino)-4′-nitro-[1,1′-biphenyl]-3-yl)-2,2,2-trifluoroethane-1,1-diol]	7.08 ± 0.19
CN(c1cc(N2CCN(C(=O)c3ccccc3)CC2)ccc1[N+](=O)[O-])C1CCC1 [TRV 1154, (4-(3-(cyclobutyl(methyl)amino)-4-nitrophenyl)piperazin-1-yl)(phenyl)methanone]	11.6 ± 1.24
O=[N+]([O-])c1ccc(-c2cccc(C(O)C(F)(F)F)c2)cc1N1CCCC1 (stereo not shown) [TRV 1155, 2,2,2-trifluoro-1-(4′-nitro-3′-(pyrrolidin-1-yl)-[1,1′-biphenyl]-3-yl)ethanol]	6.65 ± 1.97
O=C(c1ccccc1)N1CCN(c2cc(F)c(F)c(N3CCCC3)c2)CC1 [TRV 1156, (4-(3,4-difluoro-5-(pyrrolidin-1-yl)phenyl)piperazin-1-yl)(phenyl)methanone]	> 50
CC(C)Nc1ccc(N2CCN(C(=O)c3ccccc3)CC2)cc1N1CCCC1 [TRV 1157, (4-(4-(isopropyl amino)-3-(pyrrolidin-1-yl)phenyl)piperazin-1-yl)(phenyl)methanone]	> 50
O=C(c1ccccc1)N1CCN(c2ccc(F)c(NCc3ccccc3)c2)CC1 [TRV 1159, (4-(3-(benzylamino)-4-fluorophenyl)piperazin-1-yl)(phenyl)methanone]	> 50
CC(C)Nc1cc(N2CCN(C(=O)c3ccccc3)CC2)ccc1F [TRV 1160, (4-(4-fluoro-3-(isopropylamino)phenyl)piperazin-1-yl)(phenyl)methanone]	> 50
O=C(c1ccccc1)N1CCN(c2ccc(F)c(N3CCCC3)c2)CC1 [TRV 1162, (4-(4-fluoro-3-(pyrrolidin-1-yl)phenyl)piperazin-1-yl)(phenyl)methanone]	> 50
O=C(c1ccccc1)N1CCN(c2cc(N3CCCC3)cc(C(F)(F)F)c2)CC1 [TRV 1163, phenyl(4-(3-(pyrrolidin-1-yl)-5-(trifluoromethyl)phenyl)piperazin-1-yl)methanone]	> 50
O=C(c1ccccc1)N1CCN(c2ccc(-n3cnnn3)c(N3CCCC3)c2)CC1 [TRV 1164, phenyl(4-(3-(pyrrolidin-1-yl)-4-(1H-tetrazol-1-yl)phenyl)piperazin-1-yl)methanone]	> 50
CC(C)Nc1cc(N2CCN(C(=O)c3ccccc3)CC2)ccc1C(F)(F)F [TRV 1166, (4-(3-(isopropylamino)-4-(trifluoromethyl)phenyl)piperazin-1-yl)(phenyl)methanone]	> 50
N#Cc1ccc(N2CCN(C(=O)c3ccccc3)CC2)cc1N1CCCC1 [TRV 1167, 4-(4-benzoylpiperazin-1-yl)-2-(pyrrolidin-1-yl)benzonitrile]	> 50
CC(C)Nc1cc(N2CCN(C(=O)c3ccccc3)CC2)ccc1C#N [TRV 1168, 4-(4-benzoylpiperazin-1-yl)-2-(isopropylamino)benzonitrile]	> 50

From patent publication US20140187556A1, “ANTI-AMYLOID COMPOUNDS AND METHODS” (Treventis Corporation, priority 2011, published 2014)
